How the values were obtained:
cIAP-1 BIR-3 = target: T1, cIAP-1 BIR-3 (Homo sapiens, UniProt Q13490); assay: Fluorescence polarization binding to cIAP-1 BIR-3 with labeled peptide AbuRPF-K(5-Fam)-NH2; conditions: cIAP-1 BIR-3, 40 nM BIR3, 5 nM labeled peptide, 15 min RT, pH 7.5; read-out: cIAP1, nM (binding affinity KD, as range)
T1 construct: 40 nM of the respective IAP BIR3
Method: (§1) The binding affinities of the compounds are reported as a KD value (μM). Briefly, various concentrations of test peptides were mixed with 5 nM of the fluorescently labeled peptide (i.e., a mutated N-terminal Smac peptide-AbuRPF-K(5-Fam)-NH2) and 40 nM of the respective IAP BIR3 for 15 min at RT in […] of 0.1M Potassium Phosphate buffer, pH 7.5 containing […] bovine g-globulin. Following incubation, the polarization values (mP) were measured on a Victor2V™ (available from PerkinElmer® Life Sciences) using a 485 nm excitation filter and a 520 nm emission filter. The reported binding affinities (KD values) are supplied as ranges (A=<0.1 μM, B=0.1 μM to 1 μM, C=>1 μM to 10 μM, D=>10 μM).

SK-OV-3 cells = assay: MTT cell growth inhibition assay in ovarian cancer cell line SK-OV-3; type: cell-based; conditions: Homo sapiens, 72 hrs incubation, read-out: SKOV3, nM (CC50, concentration giving 50% cell survival, as range)
Method: Compounds of the invention also were tested for their ability to inhibit the growth of an ovarian cancer cell line, SK-OV-3. A known assay previously used for measuring cell growth (as described in Hansen, M. B., Nielsen, S. E., and Berg, K. (1989) J. Immunol. Methods 119, 203-210 and incorporated herein by reference in its entirety) was used. Briefly, SK-OV-3 cells are seeded in 96-well plates in McCoy's medium containing 10% fetal bovine serum albumin (5,000 per well) and incubated overnight at 37° C. The next day, test compounds are added at various concentrations (0.003-10 μM) and the plates are incubated at 37° C. for an additional 72 hrs. This incubation time was considered to be optimal for measuring inhibitory effects of the different compounds tested. 50 microliters of 5 mg/mL MTT reagent is added to each well and the plates are incubated at 37° C. for another three (3) hours. At the end of the three (3) hour incubation period, 50 microliters of DMSO is added to each well to dissolve cells and the optical density (OD) of the wells is measured with a microplate reader (Victor^2 1420™, Wallac, Finland) at 535 nm. Cell survival (CS) was calculated using the following equation: CS=(OD treated well/mean OD control wells)×100%.
The CC50 (reported in the following tables), is defined as the drug concentration that results in 50% cell survival (CS), and is derived by calculating the point where the dose-response curve crosses the 50% CS point using GraphPad Prism® graphing software. The reported CC50 values are supplied as ranges (A=<0.1 μM, B=0.1 μM to 1 μM, C=>1 μM to 10 μM, D=>10 μM).

XIAP BIR-3 = target: T2, XIAP BIR-3 (Homo sapiens, UniProt P98170); assay: Fluorescence polarization binding to XIAP BIR-3 with labeled peptide AbuRPF-K(5-Fam)-NH2; conditions: XIAP BIR-3, 40 nM BIR3, 5 nM labeled peptide, 15 min RT, pH 7.5; read-out: XIAP, nM (binding affinity KD, as range)
T2 construct: 40 nM of the respective IAP BIR3
T2 sequence (P98170 241-356 limits assumed): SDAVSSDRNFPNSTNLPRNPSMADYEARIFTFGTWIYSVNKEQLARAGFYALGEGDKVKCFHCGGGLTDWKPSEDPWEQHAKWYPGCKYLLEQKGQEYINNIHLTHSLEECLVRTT
Method: as §1

T1 sequence (Q13490 253-363 limits assumed): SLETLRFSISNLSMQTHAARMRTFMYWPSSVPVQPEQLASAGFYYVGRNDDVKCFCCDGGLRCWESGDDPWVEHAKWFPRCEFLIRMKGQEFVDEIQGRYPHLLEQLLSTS

Row | Structure (SMILES) | Kd (cIAP-1 BIR-3) [nM] | Kd (XIAP BIR-3) [nM] | CC50 (SK-OV-3 cells) [nM]
1 | CN[C@@H](C)C(=O)N[C@H](C(=O)N1CC[C@H]2NC[C@@H](C(=O)Nc3ccccc3)[C@H]21)C1CCCCC1 [Example 32] | < 100 | 100 to 1000 | 1000 to 10000
2 | CN[C@@H](C)C(=O)N[C@H](C(=O)N1CC[C@@H]2[C@H]1[C@@H](C(=O)NCCc1ccccc1)CN2S(C)(=O)=O)C1CCCCC1 [Example 16, 4-[2-Cyclohexyl-2-(2-methylamino-propionylamino)-acetyl]-1-methanesulfonyl-octahydro-pyrrolo[3,2-b]pyrrole-3-carboxylic acid-phenethyl-amide] | < 100 | < 100 | 100 to 1000
3 | CN[C@@H](C)C(=O)N[C@H](C(=O)N1CC[C@@H]2[C@H]1[C@@H](C(=O)N[C@@H](C)C1CCCCC1)CN2S(C)(=O)=O)C(C)(C)C [Example 28, 4-[3,3-Dimethyl-2-(2-methylamino-propionylamino)-butyryl]-1-methanesulfonyl-octahydro-pyrrolo[3,2-b]pyrrole-3-carboxylic acid (1S-cyclohexyl-ethyl)-amide] | < 100 | < 100 | < 100
4 | CN[C@@H](C)C(=O)N[C@H](C(=O)N1CC[C@@H]2[C@H]1[C@@H](C(=O)N(C)Cc1ccccc1)CN2S(C)(=O)=O)C1CCCCC1 [Example 9, 4-[2-Cyclohexyl-2-(2-methylamino-propionylamino)-acetyl]-1-methanesulfonyl-octahydro-pyrrolo[3,2-b]pyrrole-3-carboxylic acid benzyl-methyl-amide] | < 100 | < 100 | 100 to 1000
5 | CN[C@@H](C)C(=O)N[C@H](C(=O)N1CC[C@@H]2[C@H]1[C@@H](C(=O)N[C@@H]1CCCc3ccccc31)CN2S(C)(=O)=O)C1CCCCC1 [Example 1, 4-[2-Cyclohexyl-2-(2-methylamino-propionylamino)-acetyl]-1-methanesulfonyl-octahydro-pyrrolo[3,2-b]pyrrole-3-carboxylic acid (1,2,3,4-tetrahydro-naphthalen-1-yl)-amide] | < 100 | < 100 | < 100
6 | CN[C@@H](C)C(=O)N[C@H](C(=O)N1CC[C@@H]2[C@H]1[C@@H](C(=O)Nc1ccc3ncccc3c1)CN2S(C)(=O)=O)C(C)(C)C [Example 50, 4-[3,3-Dimethyl-2-(2-methylamino-propionylamino)-butyryl]-1-methanesulfonyl-octahydro-pyrrolo[3,2-b]pyrrole-3-carboxylic acid quinolin-6-ylamide] | < 100 | 100 to 1000 | < 100

The next lines start with results.

Row | Kd (cIAP-1 BIR-3) [nM] | Kd (XIAP BIR-3) [nM] | Structure (SMILES) | CC50 (SK-OV-3 cells) [nM]
7 | < 100 | 100 to 1000 | CN[C@@H](C)C(=O)N[C@H](C(=O)N1CC[C@@H]2[C@H]1[C@@H](C(=O)Nc1ccc3ccccc3n1)CN2S(C)(=O)=O)C(C)(C)C [Example 52, 4-[3,3-Dimethyl-2-(2-methylamino-propionylamino)-butyryl]-1-methanesulfonyl-octahydro-pyrrolo[3,2-b]pyrrole-3-carboxylic acid quinolin-2-ylamide] | < 100
8 | < 100 | < 100 | CN[C@@H](C)C(=O)N[C@H](C(=O)N1CC[C@@H]2[C@H]1[C@@H](C(=O)N[C@@H]1CCCc3ccccc31)CN2C(C)=O)C(C)(C)C [Example 34, 1-Acetyl-4-[3,3-dimethyl-2-(2-methylamino-propionylamino)-butyryl]-octahydro-pyrrolo[3,2-b]pyrrole-3-carboxylic acid (1,2,3,4-tetrahydro-naphthalen-1-yl)-amide] | < 100
9 | < 100 | 100 to 1000 | CN[C@@H](C)C(=O)N[C@H](C(=O)N1CC[C@@H]2[C@H]1[C@@H](C(=O)Nc1cccc3cccnc13)CN2S(C)(=O)=O)C(C)(C)C [Example 46, 4-[3,3-Dimethyl-2-(2-methylamino-propionylamino)-butyryl]-1-methanesulfonyl-octahydro-pyrrolo[3,2-b]pyrrole-3-carboxylic acid quinolin-8-ylamide] | < 100
10 | < 100 | < 100 | CN[C@@H](C)C(=O)N[C@H](C(=O)N1CC[C@@H]2[C@H]1[C@@H](C(=O)Nc1nccc3ccccc13)CN2S(C)(=O)=O)C(C)(C)C [Example 49, 4-[3,3-Dimethyl-2-(2-methylamino-propionylamino)-butyryl]-1-methanesulfonyl-octahydro-pyrrolo[3,2-b]pyrrole-3-carboxylic acid isoquinolin-1-ylamide] | < 100
11 | < 100 | < 100 | CN[C@@H](C)C(=O)N[C@H](C(=O)N1CC[C@@H]2[C@H]1[C@@H](C(=O)Nc1cccc3ccccc13)CN2C(=O)CNC(=O)C(=O)NCC(=O)N1C[C@H](C(=O)Nc2cccc3ccccc23)[C@@H]2[C@H]1CCN2C(=O)[C@@H](NC(=O)[C@H](C)NC)C(C)(C)C)C(C)(C)C [Example 53, N,N′-Bis-{2-[4-[3,3-dimethyl-2-(2-methylamino-propionylamino)-butyryl]-3-(naphthalen-1-ylcarbamoyl)-hexahydro-pyrrolo[3,2-b]pyrrol-1-yl]-2-oxo-ethyl}-oxalamide] | < 100
12 | < 100 | 100 to 1000 | CN[C@@H](C)C(=O)N[C@H](C(=O)N1CC[C@@H]2[C@H]1[C@@H](C(=O)Nc1cccc3ccncc13)CN2S(C)(=O)=O)C(C)(C)C [Example 45, 4-[3,3-Dimethyl-2-(2-methylamino-propionylamino)-butyryl]-1-methanesulfonyl-octahydro-pyrrolo[3,2-b]pyrrole-3-carboxylic acid isoquinolin-8-ylamide] | 100 to 1000
13 | < 100 | 100 to 1000 | CN[C@@H](C)C(=O)N[C@H](C(=O)N1CC[C@@H]2[C@H]1[C@@H](C(=O)Nc1cccc3cnccc13)CN2S(C)(=O)=O)C(C)(C)C [Example 44, 4-[3,3-Dimethyl-2-(2-methylamino-propionylamino)-butyryl]-1-methanesulfonyl-octahydro-pyrrolo[3,2-b]pyrrole-3-carboxylic acid isoquinolin-5-ylamide] | < 100
14 | < 100 | < 100 | CN[C@@H](C)C(=O)N[C@H](C(=O)N1CC[C@@H]2[C@H]1[C@@H](C(=O)NCc1ccc(F)cc1)CN2C(C)=O)C(C)(C)C [Example 35, 1-Acetyl-4-[3,3-dimethyl-2-(2-methylamino-propionylamino)-butyryl]-octahydro-pyrrolo[3,2-b]pyrrole-3-carboxylic acid 4-fluoro-benzylamide] | < 100
15 | < 100 | < 100 | CN[C@@H](C)C(=O)N[C@H](C(=O)N1CC[C@@H]2[C@H]1[C@@H](C(=O)Nc1cc(C)nc3ccccc13)CN2S(C)(=O)=O)C(C)(C)C [Example 48, 4-[3,3-Dimethyl-2-(2-methylamino-propionylamino)-butyryl]-1-methanesulfonyl-octahydro-pyrrolo[3,2-b]pyrrole-3-carboxylic acid (2-methyl-quinolin-4-yl)-amide] | < 100
